Measured values reported in patent US4504580A, “Antibiotics produced by fermentation of a novel strain of Streptomyces hygroscopicus” (Bristol-Myers Company, priority 1983, dated 1985).
In brackets after ≈: the same amount, converted by molar mass. Where two headings read alike, the source gives them in different places.

Legend:
Assay type in all cases: cell-based
[1] = tested on: Pseudomonas aeruginosa D15; assay: MIC by serial two-fold agar dilution, P. aeruginosa D15; details: Pseudomonas aeruginosa, D15
Procedure: (§1) The minimum inhibitory concentrations (MIC) of Bu-2659A, B, C, D and E were determined for a variety of gram-positive and gram-negative bacteria by the serial two-fold agar dilution method using the Steer's multi-inoculating apparatus. The inoculum was standardized as a 10^4 dilution of an overnight culture of the test organisms in Heart Infusion Broth (Difco). […] Reference antibiotics utilized in these tests included commercially available neomycin as well as its components, neomycins B and C [as used herein, the term "neomycin" means the commercial product containing neomycins B and C at an approximate ratio of 7:3], paromomycin [the commercial product containing >90% of paromomycin I and <10% of paromomycin II] and ribostamycin.

Proteus rettgeri A15167 = assay: MIC by serial two-fold agar dilution, P. rettgeri A15167; details: Providencia rettgeri, A15167
Procedure: as §1

[2] = tested on: Pseudomonas aeruginosa A9930; assay: MIC by serial two-fold agar dilution, P. aeruginosa A9930; details: Pseudomonas aeruginosa, A9930
Procedure: as §1

[3] = tested on: Staphylococcus aureus D136; assay: MIC by serial two-fold agar dilution, S. aureus D136; details: Staphylococcus aureus, D136
Procedure: as §1

[4] = tested on: Klebsiella pneumoniae D11; assay: MIC by serial two-fold agar dilution, K. pneumoniae D11; details: Klebsiella pneumoniae, D11
Procedure: as §1

[5] = tested on: gram-positive and gram-negative bacteria; assay: In vitro antibacterial spectra (MIC), overall comparison, Table 7; details: Table 7 organisms
Procedure: as §1

Proteus morganii A9553 = assay: MIC by serial two-fold agar dilution, P. morganii A9553; details: Morganella morganii, A9553
Procedure: as §1

Escherichia coli NIHJ = assay: MIC by serial two-fold agar dilution, E. coli NIHJ; details: Escherichia coli
Procedure: as §1

[6] = tested on: Bacillus subtilis PCI 219; assay: MIC by serial two-fold agar dilution, B. subtilis PCI 219; details: Bacillus subtilis, PCI219
Procedure: as §1

[7] = tested on: Staphylococcus aureus Smith; assay: MIC by serial two-fold agar dilution, S. aureus Smith; details: Staphylococcus aureus
Procedure: as §1

[8] = tested on: Staphylococcus aureus 209P; assay: MIC by serial two-fold agar dilution, S. aureus 209P; details: Staphylococcus aureus, 209P
Procedure: as §1

[9] = tested on: Micrococcus luteus PCI 1001; assay: MIC by serial two-fold agar dilution, M. luteus PCI 1001; details: Micrococcus luteus, PCI1001
Procedure: as §1

[10] = tested on: Serratia marcescens A20019; assay: MIC by serial two-fold agar dilution, S. marcescens A20019; details: Serratia marcescens, A20019
Procedure: as §1

Proteus vulgaris A9436 = assay: MIC by serial two-fold agar dilution, P. vulgaris A9436; details: Proteus vulgaris, A9436
Procedure: as §1

Micrococcus flavus D12 = assay: MIC by serial two-fold agar dilution, M. flavus D12; details: Micrococcus flavus, D12
Procedure: as §1

Proteus mirabilis A9554 = assay: MIC by serial two-fold agar dilution, P. mirabilis A9554; details: Proteus mirabilis, A9554
Procedure: as §1

Proteus mirabilis A9906 = assay: MIC by serial two-fold agar dilution, P. mirabilis A9906; details: Proteus mirabilis, A9906
Procedure: as §1

Escherichia coli Juhl = assay: MIC by serial two-fold agar dilution, E. coli Juhl; details: Escherichia coli
Procedure: as §1

Escherichia coli JR88 = assay: MIC, aminoglycoside-resistant E. coli JR88; details: Escherichia coli, JR88
Procedure: as §1

[11] = tested on: Bacillus brevis IFO 12334; assay: MIC, aminoglycoside-resistant B. brevis IFO 12334; details: Brevibacillus brevis, IFO12334
Procedure: as §1

Escherichia coli A20107 = assay: MIC, aminoglycoside-resistant E. coli A20107; details: Escherichia coli, A20107; Table 9; inactivating enzyme APH(3')-II; Mueller-Hinton agar; read-out: MIC
Procedure: as §1

[12] = tested on: Escherichia coli JR66/W677; assay: MIC, aminoglycoside-resistant E. coli JR66/W677; details: Escherichia coli, JR66/W677
Procedure: as §1

[13] = tested on: Staphylococcus aureus A20239; assay: MIC, aminoglycoside-resistant S. aureus A20239; details: Staphylococcus aureus, A20239
Procedure: as §1

[14] = tested on: Pseudomonas aeruginosa A20601; assay: MIC, aminoglycoside-resistant P. aeruginosa A20601; details: Pseudomonas aeruginosa, A20601
Procedure: as §1

Escherichia coli ML 1630 = assay: MIC, aminoglycoside-resistant E. coli ML 1630; details: Escherichia coli, ML1630; Table 9; inactivating enzyme APH(3')-I; Mueller-Hinton agar; read-out: MIC
Procedure: as §1

[15] = tested on: Escherichia coli NR79/W677; assay: MIC, aminoglycoside-resistant E. coli NR79/W677; details: Escherichia coli, NR79/W677
Procedure: as §1

[16] = tested on: Escherichia coli JR35/C600; assay: MIC, aminoglycoside-resistant E. coli JR35/C600; details: Escherichia coli, JR35/C600
Procedure: as §1

[17] = tested on: Enterobacter cloacae A20364; assay: MIC, aminoglycoside-resistant E. cloacae A20364; details: Enterobacter cloacae, A20364
Procedure: as §1

[18] = tested on: Pseudomonas aeruginosa A20896; assay: MIC, aminoglycoside-resistant P. aeruginosa A20896; details: Pseudomonas aeruginosa, A20896
Procedure: as §1

Escherichia coli A20732 = assay: MIC, aminoglycoside-resistant E. coli A20732; details: Escherichia coli, A20732; Table 9; inactivating enzyme ANT(2"); Mueller-Hinton agar; read-out: MIC
Procedure: as §1

[19] = Table 7, Mueller-Hinton agar, read-out: MIC

NC[C@@H]1O[C@H](O[C@H]2[C@@H](O)[C@H](O[C@@H]3[C@@H](O)[C@H](O)C[C@H](N)[C@H]3O[C@H]3O[C@H](CO)[C@@H](O)[C@H](O)[C@H]3N)O[C@@H]2CO)[C@H](N)[C@@H](O)[C@@H]1O [Bu-2659C, 1-deamino-1-hydroxyparomomycin I]
MIC [1, 19]: 25 µg/mL (≈ 40.5 µM) | MIC (Proteus rettgeri A15167; [19]): 3.1 µg/mL (≈ 5.03 µM) | MIC [2, 19]: 12.5 µg/mL (≈ 20.3 µM) | MIC [3, 19]: 6.3 µg/mL (≈ 10.2 µM) | MIC [4, 19]: 1.6 µg/mL (≈ 2.59 µM) | activity relative to Bu-2659A ([5]; as active as Bu-2659A): approximately 1/4 | MIC (Proteus morganii A9553; [19]): 6.3 µg/mL (≈ 10.2 µM) | MIC (Escherichia coli NIHJ; [19]): 6.3 µg/mL (≈ 10.2 µM) | MIC [6, 19]: 0.8 µg/mL (≈ 1.3 µM) | MIC [7, 19]: 6.3 µg/mL (≈ 10.2 µM) | MIC [8, 19]: 3.1 µg/mL (≈ 5.03 µM) | MIC [9, 19]: > 100 µg/mL | MIC [10, 19]: 6.3 µg/mL (≈ 10.2 µM) | MIC (Proteus vulgaris A9436; [19]): 1.6 µg/mL (≈ 2.59 µM) | MIC (Micrococcus flavus D12; [19]): > 100 µg/mL | MIC (Proteus mirabilis A9554; [19]): 3.1 µg/mL (≈ 5.03 µM) | MIC (Proteus mirabilis A9906; [19]): 3.1 µg/mL (≈ 5.03 µM) | MIC (Escherichia coli Juhl; [19]): 25 µg/mL (≈ 40.5 µM)

NC[C@H]1O[C@H](O[C@H]2[C@H](O)[C@@H](O)[C@H](N)C[C@@H]2N)[C@H](N)[C@@H](O)[C@@H]1O [Neamine, neamine]
MIC [2]: 400 µg/mL (≈ 1240 µM) | MIC [4]: 12.5 µg/mL (≈ 38.8 µM) | MIC (Escherichia coli NIHJ): 12.5 µg/mL (≈ 38.8 µM) | MIC [6]: 3.1 µg/mL (≈ 9.62 µM) | MIC [7]: 3.1 µg/mL (≈ 9.62 µM) | MIC [8]: 6.3 µg/mL (≈ 19.5 µM) | MIC (Proteus vulgaris A9436): 6.3 µg/mL (≈ 19.5 µM) | MIC (Escherichia coli JR88): 12.5 µg/mL (≈ 38.8 µM) | MIC (Proteus mirabilis A9554): 25 µg/mL (≈ 77.6 µM)

NC[C@@H]1O[C@H](O[C@H]2[C@@H](O)[C@H](O[C@@H]3[C@@H](O)[C@H](N)C[C@H](N)[C@H]3O[C@H]3O[C@H](CO)[C@@H](O)[C@H](O)[C@H]3N)O[C@@H]2CO)[C@H](N)[C@@H](O)[C@@H]1O [Paromomycin, paromomycin]
MIC [11]: > 100 µg/mL | MIC [1]: 50 µg/mL (≈ 81.2 µM) | MIC (Proteus rettgeri A15167): 1.6 µg/mL (≈ 2.6 µM) | MIC [2]: 12.5 µg/mL (≈ 20.3 µM) | MIC (Escherichia coli A20107): > 100 µg/mL | MIC [12]: > 100 µg/mL | MIC [3]: 0.8 µg/mL (≈ 1.3 µM) | MIC [13]: > 100 µg/mL | MIC [4]: 0.4 µg/mL (≈ 0.65 µM) | MIC (Proteus morganii A9553): 1.6 µg/mL (≈ 2.6 µM) | MIC (Escherichia coli NIHJ; [19]): 3.1 µg/mL (≈ 5.04 µM) | MIC [6]: 0.2 µg/mL (≈ 0.325 µM) | MIC [7]: 1.6 µg/mL (≈ 2.6 µM) | MIC [8]: 0.8 µg/mL (≈ 1.3 µM) | MIC [9]: 6.3 µg/mL (≈ 10.2 µM) | MIC [10]: 1.6 µg/mL (≈ 2.6 µM) | MIC [14]: > 100 µg/mL | MIC (Proteus vulgaris A9436): 0.8 µg/mL (≈ 1.3 µM) | MIC (Escherichia coli ML 1630): > 100 µg/mL | MIC [15]: > 100 µg/mL | MIC (Micrococcus flavus D12): 12.5 µg/mL (≈ 20.3 µM) | MIC [16]: > 100 µg/mL | MIC [17]: > 100 µg/mL | MIC (Escherichia coli JR88): 1.6 µg/mL (≈ 2.6 µM) | MIC [18]: > 100 µg/mL | MIC (Escherichia coli A20732): 1.6 µg/mL (≈ 2.6 µM) | MIC (Proteus mirabilis A9554): 0.8 µg/mL (≈ 1.3 µM) | MIC (Proteus mirabilis A9906): 0.8 µg/mL (≈ 1.3 µM) | MIC (Escherichia coli Juhl): 12.5 µg/mL (≈ 20.3 µM)

NC[C@H]1O[C@H](O[C@H]2[C@H](O[C@@H]3O[C@H](CO)[C@@H](O)[C@H]3O)[C@@H](O)[C@H](O)C[C@@H]2N)[C@H](N)[C@@H](O)[C@@H]1O [Bu-2659E, 1-deamino-1-hydroxyribostamycin]
MIC [1, 19]: > 100 µg/mL | MIC (Proteus rettgeri A15167; [19]): 12.5 µg/mL (≈ 27.4 µM) | MIC [2, 19]: > 100 µg/mL | MIC [3, 19]: 50 µg/mL (≈ 110 µM) | MIC [4, 19]: 12.5 µg/mL (≈ 27.4 µM) | in vitro antibacterial activity, in words [5]: less active than components B and C | MIC (Proteus morganii A9553; [19]): 25 µg/mL (≈ 54.9 µM) | MIC (Escherichia coli NIHJ; [19]): 50 µg/mL (≈ 110 µM) | MIC [6, 19]: 3.1 µg/mL (≈ 6.81 µM) | MIC [7, 19]: 50 µg/mL (≈ 110 µM) | MIC [8, 19]: 25 µg/mL (≈ 54.9 µM) | MIC [9, 19]: > 100 µg/mL | MIC [10, 19]: > 100 µg/mL | MIC (Proteus vulgaris A9436; [19]): 12.5 µg/mL (≈ 27.4 µM) | MIC (Micrococcus flavus D12; [19]): > 100 µg/mL | MIC (Proteus mirabilis A9554; [19]): 12.5 µg/mL (≈ 27.4 µM) | MIC (Proteus mirabilis A9906; [19]): 25 µg/mL (≈ 54.9 µM) | MIC (Escherichia coli Juhl; [19]): > 100 µg/mL
